Test [1] has as its target T1, PfEXP1 (Plasmodium falciparum, UniProt Q8IIF0).
T1 sequence (Q8IIF0 23-162): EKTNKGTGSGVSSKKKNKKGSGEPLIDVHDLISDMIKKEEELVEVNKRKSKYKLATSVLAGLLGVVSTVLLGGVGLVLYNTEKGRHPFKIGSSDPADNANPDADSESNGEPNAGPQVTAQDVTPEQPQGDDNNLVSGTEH
As to the kind of experiment: glutathione S-transferase assay, absorbance at […] nm. In kind it is biochemical.

Test [2] addresses T2, PfEXP1 (expressed in Pichia pastoris) (Plasmodium falciparum, UniProt Q8IIF0).
T2 sequence (Q8IIF0 23-162): T1 sequence (Q8IIF0 23-162)
Described as above. In kind it is biochemical.

SMILES strings stand for the structures.

A word on the IC50: it is the midpoint of a concentration-inhibition curve. As for `CCN(CC)CCCC(C)Nc1ccnc2cc(Cl)ccc12` (stereo not drawn) [chloroquine], the IC50 was found to be 19.3 ± 2.67 nM in test [1] and 11.1 ± 4.12 nM in test [2].

On to `C=C[C@H]1C[N@@]2CC[C@H]1C[C@H]2[C@H](O)c1ccnc2ccc(OC)cc12` [quinine], for which the IC50 in test [2] is 179 ± 52.1 nM.

Source of the values: publication PMC5963095 (International Journal for Parasitology: Drugs and Drug …, 2017).
